Data as given in publication PMC11257039, “VCP activator reverses nuclear proteostasis defects and enhances TDP-43 aggregate clearance in multisystem proteinopathy models” (The Journal of Clinical Investigation, 2024).
Several values for one entry are separate records, joined by “and”; a condition that tells them apart may be missing. Equal values may be shown once. Residues, ends and D or L forms follow the SMILES beside them. *: point of attachment. Cbz = O=C(OCc1ccccc1)*

How the values were obtained:
Assay type in all cases: cell-based
[1] = tested on: WT HeLa cells expressing TDP-4FL; assay: Immunofluorescence of TDP-4FL inclusion morphology, WT HeLa; details: for Proportion of Morphology: Aggregate / Proportion of Morphology: Anisosome: WT
Description: (§1) HeLa Cells were plated onto glass coverslips and transfected with TDP-4FL using Fugene HD for 24 hours. Cells were fixed with 4% paraformaldehyde (Electron Microscopy Sciences), permeabilized with 0.1% Triton-X (Thermo Fisher Scientific), and blocked with 2% FBS DPBS. Primary antibodies were diluted in 2% FBS DPBS. Cells were stained with 300 nM DAPI, and coverslips were mounted onto glass slides using ProLong Glass Antifade Mountant (Thermo Fisher Scientific). Confocal images were obtained using a Leica TCS SPE laser scanning confocal microscope.
(A) High power magnification immunofluorescence confocal images of HeLa cells expressing TDP-4FL stained for myc-TDP (green) Scale bar, 5 µm. […]
(C) Representative confocal microscopy immunofluorescence confocal images of HeLa cells […]
(§2) yellow represent cells that were categorized as anisosome morphology. Nuclei outline in white represent cells that were categorized as aggregate morphology. Cells with approximately more than 50% anisosome inclusions were categorized as anisosome morphology whereas cells with approximately more than 50% aggregate-like inclusions were categorized as aggregate morphology. Binucleate cells were excluded from the total counts. Scale bar, 10 µm.
(§3) (1 picture or pasted object on this page, not shown here)

[2] = tested on: A232E HeLa cells expressing TDP-4FL; assay: Immunofluorescence of TDP-4FL inclusion morphology, A232E HeLa
Description: as §1, with “microscope. Primary antibodies used include mouse anti-Myc (9E10), rabbit anti-Myc (ab9106), mouse anti-VCP (NB120-11433), and mouse anti-ubiquitin (ST1200, Millipore) with Alexa Flour 488 or 568 (Invitrogen) as secondary antibodies. […]” for “microscope.”
(§4) morphologies with MG132 treatment.
(§5) (A) High power magnification immunofluorescence confocal images of HeLa cells expressing TDP-4FL stained for myc-TDP (green) Scale bar, 5 µm. (B) Immunofluorescence confocal images of HeLa cells treated with or without 5% 1’6-Hexanediol for 10 minutes stained for myc-TDP (green) or DAPI (blue). Scale bar, 5 µm. (C) Representative confocal microscopy immunofluorescence confocal images of HeLa cells […]
as §2, §3

[3] = tested on: R155H HeLa cells expressing TDP-4FL; assay: Immunofluorescence of TDP-4FL inclusion morphology, R155H HeLa
Description: as §1, with “microscope. Primary antibodies used include mouse anti-Myc (9E10), rabbit anti-Myc (ab9106), mouse anti-VCP (NB120-11433), and mouse anti-ubiquitin (ST1200, Millipore) with Alexa Flour 488 or 568 (Invitrogen) as secondary antibodies. […]” for “microscope.”
as §4, §5, §2, §3

CC(C)C[C@@H](C=O)NC(=O)[C@H](CC(C)C)NC(=O)[C@H](CC(C)C)NC(=O)OCc1ccccc1 [MG132] (Cbz-Leu-Leu-Leu-aldehyde)
TDP-4FL inclusion size and morphology upon proteasome inhibition ([1]; 4 μM MG132, 1 μM ixazomib or 1 μM epoxomicin, 3 or 6 hours): coalesced into larger, irregularly shaped aggregates | Proportion of Morphology: Aggregate ([1]; MG132 3 hours): 0.538 and 0.500 and 0.591 and 0.474 | Proportion of Morphology: Anisosome ([1]; MG132 3 hours): 0.462 and 0.500 and 0.409 and 0.526 | Proportion of Morphology: Aggregate ([1]; MG132 6 hours): 0.636 and 0.719 and 0.766 | Proportion of Morphology: Anisosome ([1]; MG132 6 hours): 0.364 and 0.281 and 0.234 | Proportion of Morphology: Aggregate ([2]; MG132 3 hours): 0.604 and 0.568 and 0.630 and 0.595 | Proportion of Morphology: Anisosome ([2]; MG132 3 hours): 0.396 and 0.432 and 0.370 and 0.405 | Proportion of Morphology: Aggregate ([2]; MG132 6 hours): 0.766 and 0.785 and 0.833 | Proportion of Morphology: Anisosome ([2]; MG132 6 hours): 0.234 and 0.215 and 0.167 | Proportion of Morphology: Aggregate ([3]; MG132 3 hours): 0.608 and 0.623 and 0.684 and 0.640 | Proportion of Morphology: Anisosome ([3]; MG132 3 hours): 0.392 and 0.377 and 0.316 and 0.360 | Proportion of Morphology: Aggregate ([3]; MG132 6 hours): 0.768 and 0.744 and 0.727 | Proportion of Morphology: Anisosome ([3]; MG132 6 hours): 0.232 and 0.256 and 0.273
